According to patent US8324211B2, “Inhibitors of bruton's tyrosine kinase” (Roche Palo Alto LLC, priority 2008, dated 2012):

Target: T1, Btk enzyme (His-tagged, full-length) (Homo sapiens, UniProt Q06187)
T1 construct: 5-10 nM Btk enzyme (His-tagged, full-length); His
Experiment: Bruton's Tyrosine Kinase (Btk) Inhibition Assay (33P filtration capture)
Type: biochemical
Conditions: 100 μM ATP, 30 μM peptide substrate, 30 min at 30° C.
Description: Bruton's Tyrosine Kinase (Btk) Inhibition Assay
The assay is a capture of radioactive ^33P phosphorylated product through filtration. The interactions of Btk, biotinylated SH2 peptide substrate (Src homology), and ATP lead to phosphorylation of the peptide substrate. Biotinylated product is bound streptavidin sepharose beads. All bound, radiolabeled products are detected by scintillation counter.
Plates assayed are 96-well polypropylene (Greiner) and 96-well 1.2 μm hydrophilic PVDF filter plates (Millipore). Concentrations reported here are final assay concentrations: 10-100 μM compounds in DMSO (Burdick and Jackson), 5-10 nM Btk enzyme (His-tagged, full-length), 30 μM peptide substrate (Biotin-Aca-AAAEEIYGEI-NH2), 100 μM ATP (Sigma), 8 mM imidazole (Sigma, pH 7.2), 8 mM glycerol-2-phosphate (Sigma), 200 μM EGTA (Roche Diagnostics), 1 mM MnCl2 (Sigma), 20 mM MgCl2 (Sigma), 0.1 mg/ml BSA (Sigma), 2 mM DTT (Sigma), 1 μCi^33P ATP (Amersham), 20% streptavidin sepharose beads (Amersham), 50 mM EDTA (Gibco), 2 M NaCl (Gibco), 2 M NaCl w/1% phosphoric acid (Gibco), microscint-20 (Perkin Elmer).
IC50 determinations are calculated from 10 data points per compound utilizing data produced from a standard 96-well plate assay template. One control compound and seven unknown inhibitors were tested on each plate and each plate was run twice. Typically, compounds were diluted in half-log starting at 100 μM and ending at 3 nM.The control compound was staurosporine. Background was counted in the absence of peptide substrate. Total activity was determined in the presence of peptide substrate. The following protocol was used to determine Btk inhibition. • 1) Sample preparation: The test compounds were diluted at half-log increments in assay buffer (imidazole, glycerol-2-phosphate, EGTA, MnCl2, MgCl2, BSA). • 2) Bead preparation […]

T1 sequence (Q06187 whole entry): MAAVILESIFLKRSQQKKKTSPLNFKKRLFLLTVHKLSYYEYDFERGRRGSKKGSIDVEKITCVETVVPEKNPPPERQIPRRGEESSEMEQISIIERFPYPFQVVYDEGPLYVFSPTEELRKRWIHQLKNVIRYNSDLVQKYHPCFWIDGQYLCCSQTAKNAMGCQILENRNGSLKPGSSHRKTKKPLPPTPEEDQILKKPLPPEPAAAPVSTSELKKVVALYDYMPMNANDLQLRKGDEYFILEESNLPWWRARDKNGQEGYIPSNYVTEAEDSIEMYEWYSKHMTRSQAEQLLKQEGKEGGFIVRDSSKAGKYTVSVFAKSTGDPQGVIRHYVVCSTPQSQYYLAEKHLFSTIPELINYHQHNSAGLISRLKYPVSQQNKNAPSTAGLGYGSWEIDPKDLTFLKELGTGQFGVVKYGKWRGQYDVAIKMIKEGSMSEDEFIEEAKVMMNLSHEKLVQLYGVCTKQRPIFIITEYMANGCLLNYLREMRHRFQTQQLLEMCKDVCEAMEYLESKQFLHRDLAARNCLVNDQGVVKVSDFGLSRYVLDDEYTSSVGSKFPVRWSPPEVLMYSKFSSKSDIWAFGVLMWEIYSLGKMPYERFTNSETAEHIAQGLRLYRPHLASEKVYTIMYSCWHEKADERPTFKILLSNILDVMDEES

IC50 [nM]	SMILES
< 10	CN(C)c1ccc2c(c1)CCN(c1cccc(-c3cc(Nc4ccc(C(=O)N5CCOCC5)cn4)c4nccn4n3)c1CO)C2=O [II-1, 6-Dimethylamino-2-(2-hydroxymethyl-3-{8-[5-(morpholine-4-carbonyl)-pyridin-2-ylamino]-imidazo[1,2-b]pyridazin-6-yl}-phenyl)-3,4-dihydro-2H-isoquinolin-1-one]
< 10	CN(C)c1ccc2c(c1)CCN(c1cccc(-c3cc(Nc4ccc(C(=O)N5CCOCC5)cn4)c4nccn4c3)c1CO)C2=O [II-4, 6-Dimethylamino-2-(2-hydroxymethyl-3-{8-[5-(morpholine-4-carbonyl)-pyridin-2-ylamino]-imidazo[1,2-a]pyridin-6-yl}-phenyl)-3,4-dihydro-2H-isoquinolin-1-one]
< 10	O=C(c1ccc(Nc2cc(-c3cccc(N4CCc5cc(C6CC6)ccc5C4=O)c3CO)nn3ccnc23)nc1)N1CCOCC1 [II-2, 6-Cyclopropyl-2-(2-hydroxymethyl-3-{8-[5-(morpholine-4-carbonyl)-pyridin-2-ylamino]-imidazo[1,2-b]pyridazin-6-yl}-phenyl)-3,4-dihydro-2H-isoquinolin-1-one]
